Assay [1] has as its system Staphylococcus aureus. The assay can be described thus: Antibacterial activity against methicillin-resistant Staphylococcus aureus clinical isolate SA86 by broth dilution assay. The assay is classed as functional. For orientation: Broth dilution looks for growth in wells or tubes with falling amounts of substance.
Assay [2] relates to Staphylococcus aureus. The assay can be described thus: Antibacterial activity against methicillin-susceptible Staphylococcus aureus ATCC 29213 by broth dilution assay. The assay is classed as functional.

In brackets after ≈: the same amount, converted by molar mass.

The values that follow come from ChEMBL document CHEMBL4184145, “Synthesis and structure-activity relationship of teixobactin analogues via convergent Ser ligation” (2017).

On to `CC[C@@H](C)[C@@H](NC(=O)[C@@H](CCC(N)=O)NC(=O)[C@H](CO)NC(=O)[C@@H](NC(=O)[C@@H](Cc1ccccc1)NC)[C@@H](C)CC)C(=O)N[C@H](C(=O)N[C@@H](CO)C(=O)N[C@H]1C(=O)NCC(=O)N[C@@H](CCCN)C(=O)N[C@@H]([C@@H](C)CC)C(=O)O[C@H]1C)[C@@H](C)CC`, for which the minimal inhibitory concentration (MIC) in assay [1] and in assay [2] was no less than 32 µg/mL throughout.

`CC[C@@H](C)[C@@H](NC(=O)[C@@H](CCC(N)=O)NC(=O)[C@H](CO)NC(=O)[C@@H](NC(=O)[C@@H](Cc1ccccc1)NC)[C@@H](C)O)C(=O)N[C@H](C(=O)N[C@@H](CO)C(=O)N[C@H]1C(=O)N[C@@H](C)C(=O)N[C@@H](CCCN)C(=O)N[C@@H]([C@@H](C)CC)C(=O)O[C@H]1C)[C@@H](C)CC`: the MIC in assay [1] and in assay [2] was no less than 32 µg/mL in each case.

`CC[C@@H](C)[C@@H](NC(=O)[C@@H](CCC(N)=O)NC(=O)[C@H](CO)NC(=O)[C@@H](NC(=O)[C@@H](Cc1ccccc1)NC)[C@@H](C)CC)C(=O)N[C@H](C(=O)N[C@@H](CO)C(=O)N[C@H]1C(=O)N[C@H](C)C(=O)N[C@@H](CCCN)C(=O)N[C@@H]([C@@H](C)CC)C(=O)O[C@H]1C)[C@@H](C)CC`: the MIC in assay [1] and in assay [2] was no less than 32 µg/mL throughout.

`CC[C@@H](C)[C@@H](NC(=O)[C@@H](CCC(N)=O)NC(=O)[C@H](CO)NC(=O)[C@@H](NC(=O)[C@@H](Cc1ccccc1)NC)[C@@H](C)CC)C(=O)N[C@H](C(=O)N[C@@H](CO)C(=O)N[C@H]1C(=O)N[C@@H](C)C(=O)N[C@@H](CCCN)C(=O)N[C@@H]([C@@H](C)CC)C(=O)O[C@H]1C)C(C)C`: the minimal inhibitory concentration (MIC) in assay [1] and in assay [2] was no less than 32 µg/mL in each case.

Take `CC[C@@H](C)[C@@H](NC(=O)[C@@H](CCC(N)=O)NC(=O)[C@H](CO)NC(=O)[C@@H](NC(=O)[C@@H](Cc1ccccc1)NC)[C@@H](C)CC)C(=O)N[C@@H](C)C(=O)N[C@@H](CO)C(=O)N[C@H]1C(=O)N[C@@H](C)C(=O)N[C@@H](CCCN)C(=O)N[C@@H]([C@@H](C)CC)C(=O)O[C@H]1C`: the MIC in assay [1] and in assay [2] was no less than 32 µg/mL each time.

For the compound `CC[C@@H](C)[C@@H](NC(=O)[C@H](CCC(N)=O)NC(=O)[C@H](CO)NC(=O)[C@@H](NC(=O)[C@@H](Cc1ccccc1)NC)[C@@H](C)CC)C(=O)N[C@H](C(=O)N[C@@H](CO)C(=O)N[C@H]1C(=O)N[C@@H](C)C(=O)N[C@@H](CCCN)C(=O)N[C@@H]([C@@H](C)CC)C(=O)O[C@H]1C)[C@@H](C)CC`, the MIC in assay [1] and in assay [2] was no less than 32 µg/mL in each case.

Turning to `CC[C@@H](C)[C@@H](NC(=O)[C@@H](CCC(N)=O)NC(=O)[C@H](CO)NC(=O)[C@@H](NC(=O)[C@@H](C)NC)[C@@H](C)CC)C(=O)N[C@H](C(=O)N[C@@H](CO)C(=O)N[C@H]1C(=O)N[C@@H](C)C(=O)N[C@@H](CCCN)C(=O)N[C@@H]([C@@H](C)CC)C(=O)O[C@H]1C)[C@@H](C)CC`, the minimal inhibitory concentration (MIC) in assay [1] and in assay [2] was no less than 32 µg/mL each time.

On to `CC[C@@H](C)[C@@H](NC(=O)[C@@H](CCC(N)=O)NC(=O)[C@H](CO)NC(=O)[C@@H](NC(=O)[C@@H](Cc1ccccc1)NC)[C@@H](C)CC)C(=O)N[C@H](C(=O)N[C@@H](CO)C(=O)N[C@H]1C(=O)N[C@@H](C)C(=O)N[C@@H](CCNC(=N)N)C(=O)N[C@@H]([C@@H](C)CC)C(=O)O[C@H]1C)[C@@H](C)CC`, for which the minimal inhibitory concentration (MIC) is 16 µg/mL (≈ 13 µM) in assay [1] and 8 to 16 µg/mL (≈ 6.5 to 13 µM) in assay [2].

`CC[C@@H](C)[C@@H](NC(=O)[C@@H](CCC(N)=O)NC(=O)[C@H](CO)NC(=O)[C@@H](NC(=O)[C@H](Cc1ccccc1)NC)[C@@H](C)CC)C(=O)N[C@H](C(=O)N[C@@H](CO)C(=O)N[C@H]1C(=O)N[C@@H](C)C(=O)N[C@@H](CCCN)C(=O)N[C@@H]([C@@H](C)CC)C(=O)O[C@H]1C)[C@@H](C)CC`: the MIC in assay [1] and in assay [2] was no less than 32 µg/mL each time.

For the compound `CC[C@@H](C)[C@@H](NC(=O)[C@@H](CCC(N)=O)NC(=O)[C@H](CO)NC(=O)[C@@H](NC(=O)[C@H](N)Cc1ccccc1)[C@@H](C)CC)C(=O)N[C@H](C(=O)N[C@@H](CO)C(=O)N[C@H]1C(=O)N[C@@H](C)C(=O)N[C@@H](CCCN)C(=O)N[C@@H]([C@@H](C)CC)C(=O)O[C@H]1C)[C@@H](C)CC`, the MIC in assay [1] and in assay [2] was 16 µg/mL (≈ 13.5 µM) in each case.

As for `CC[C@@H](C)[C@@H](NC(=O)[C@@H](CCC(N)=O)NC(=O)[C@H](CO)NC(=O)[C@@H](NC(=O)[C@@H](Cc1ccccc1)NC)[C@@H](C)CC)C(=O)N[C@H](C(=O)N[C@@H](CO)C(=O)N[C@H]1C(=O)N[C@@H](C)C(=O)N[C@@H](CCCN)C(=O)N[C@@H](C(C)C)C(=O)O[C@H]1C)[C@@H](C)CC`, the MIC in assay [1] and in assay [2] was 8 µg/mL (≈ 6.73 µM) throughout.

For `CC[C@@H](C)[C@@H](NC(=O)[C@@H](CCC(N)=O)NC(=O)[C@H](CO)NC(=O)[C@@H](NC(=O)[C@@H](Cc1ccccc1)NC)[C@@H](C)CC)C(=O)N[C@@H](CC(C)C)C(=O)N[C@@H](CO)C(=O)N[C@H]1C(=O)N[C@@H](C)C(=O)N[C@@H](CCCN)C(=O)N[C@@H]([C@@H](C)CC)C(=O)O[C@H]1C`, the MIC in assay [1] and in assay [2] was no less than 32 µg/mL each time.

For the compound `CC[C@H](C)[C@H](NC(=O)[C@@H](C)NC(=O)[C@@H](CCC(N)=O)NC(=O)[C@H](CO)NC(=O)[C@@H](NC(=O)[C@@H](Cc1ccccc1)NC)[C@@H](C)CC)C(=O)N[C@@H](CO)C(=O)N[C@H]1C(=O)N[C@@H](C)C(=O)N[C@@H](CCCN)C(=O)N[C@@H]([C@@H](C)CC)C(=O)O[C@H]1C`, the MIC in assay [1] and in assay [2] was no less than 32 µg/mL each time.

Regarding `CC[C@@H](C)[C@@H](NC(=O)[C@@H](CCC(N)=O)NC(=O)[C@H](CO)NC(=O)[C@@H](NC(=O)[C@@H](Cc1ccccc1)NC)[C@@H](C)CC)C(=O)N[C@@H](Cc1ccccc1)C(=O)N[C@@H](CO)C(=O)N[C@H]1C(=O)N[C@@H](C)C(=O)N[C@@H](CCCN)C(=O)N[C@@H]([C@@H](C)CC)C(=O)O[C@H]1C`, the minimum inhibitory concentration (MIC) in assay [1] and in assay [2] was no less than 32 µg/mL in each case.

Take `CC[C@@H](C)[C@@H](NC(=O)[C@@H](CCC(N)=O)NC(=O)[C@H](C)NC(=O)[C@@H](NC(=O)[C@@H](Cc1ccccc1)NC)[C@@H](C)CC)C(=O)N[C@H](C(=O)N[C@@H](CO)C(=O)N[C@H]1C(=O)N[C@@H](C)C(=O)N[C@@H](CCCN)C(=O)N[C@@H]([C@@H](C)CC)C(=O)O[C@H]1C)[C@@H](C)CC`: the minimal inhibitory concentration (MIC) in assay [1] and in assay [2] was 4 µg/mL (≈ 3.37 µM) in each case.

With `CC[C@@H](C)[C@@H](NC(=O)[C@@H](CCC(N)=O)NC(=O)[C@H](CO)NC(=O)[C@H](Cc1ccccc1)NC(=O)[C@@H](Cc1ccccc1)NC)C(=O)N[C@H](C(=O)N[C@@H](CO)C(=O)N[C@H]1C(=O)N[C@@H](C)C(=O)N[C@@H](CCCN)C(=O)N[C@@H]([C@@H](C)CC)C(=O)O[C@H]1C)[C@@H](C)CC`, the minimum inhibitory concentration (MIC) in assay [1] and in assay [2] was no less than 32 µg/mL each time.

In the case of `CC[C@@H](C)[C@@H](NC(=O)[C@@H](CCC(N)=O)NC(=O)[C@H](CO)NC(=O)[C@@H](NC(=O)[C@@H](Cc1ccccc1)NC)[C@@H](C)CC)C(=O)N[C@H](C(=O)N[C@@H](CO)C(=O)N[C@H]1C(=O)N[C@@H](Cc2ccccc2)C(=O)N[C@@H](CCCN)C(=O)N[C@@H]([C@@H](C)CC)C(=O)O[C@H]1C)[C@@H](C)CC`, the MIC in assay [1] and in assay [2] was no less than 32 µg/mL in each case.

Consider `CC[C@@H](C)[C@@H](NC(=O)[C@@H](CCC(N)=O)NC(=O)[C@H](CO)NC(=O)[C@@H](NC(=O)[C@@H](Cc1ccccc1)NC)[C@@H](C)CC)C(=O)N[C@H](C(=O)N[C@@H](CO)C(=O)N[C@H]1C(=O)N[C@@H](CCCN)C(=O)N[C@@H](CCCN)C(=O)N[C@@H]([C@@H](C)CC)C(=O)O[C@H]1C)[C@@H](C)CC`, for which the MIC in assay [1] and in assay [2] was 8 µg/mL (≈ 6.42 µM) throughout.

Turning to `CC[C@@H](C)[C@@H](NC(=O)[C@@H](CCC(N)=O)NC(=O)[C@H](CC(N)=O)NC(=O)[C@@H](NC(=O)[C@@H](Cc1ccccc1)NC)[C@@H](C)CC)C(=O)N[C@H](C(=O)N[C@@H](CO)C(=O)N[C@H]1C(=O)N[C@@H](C)C(=O)N[C@@H](CCCN)C(=O)N[C@@H]([C@@H](C)CC)C(=O)O[C@H]1C)[C@@H](C)CC`, the minimum inhibitory concentration (MIC) is no less than 32 µg/mL in assay [1] and 16 µg/mL (≈ 13 µM) in assay [2].

For `CC[C@@H](C)[C@@H](NC(=O)[C@@H](CCC(N)=O)NC(=O)[C@H](CO)NC(=O)[C@H](NC(=O)[C@@H](Cc1ccccc1)NC)[C@@H](C)CC)C(=O)N[C@H](C(=O)N[C@@H](CO)C(=O)N[C@H]1C(=O)N[C@@H](C)C(=O)N[C@@H](CCCN)C(=O)N[C@@H]([C@@H](C)CC)C(=O)O[C@H]1C)[C@@H](C)CC`, the minimal inhibitory concentration (MIC) in assay [1] and in assay [2] was no less than 32 µg/mL each time.

In the case of `CC[C@@H](C)[C@@H](NC(=O)[C@@H](CCC(N)=O)NC(=O)[C@H](CCCCN)NC(=O)[C@@H](NC(=O)[C@@H](Cc1ccccc1)NC)[C@@H](C)CC)C(=O)N[C@H](C(=O)N[C@@H](CO)C(=O)N[C@H]1C(=O)N[C@@H](C)C(=O)N[C@@H](CCCN)C(=O)N[C@@H]([C@@H](C)CC)C(=O)O[C@H]1C)[C@@H](C)CC`, the figures for the MIC in assay [1] and in assay [2] were 8 µg/mL (≈ 6.43 µM) and 4 µg/mL (≈ 3.22 µM), respectively.

With `CC[C@@H](C)[C@@H](NC(=O)[C@@H](CCC(N)=O)NC(=O)[C@H](CO)NC(=O)[C@@H](NC(=O)[C@@H](Cc1ccccc1)NC)[C@@H](C)CC)C(=O)N[C@H](C(=O)N[C@@H](CO)C(=O)N[C@H]1C(=O)N[C@@H](C)C(=O)N[C@@H](CCCN)C(=O)N[C@@H](CC(C)C)C(=O)O[C@H]1C)[C@@H](C)CC`, the minimum inhibitory concentration (MIC) in assay [1] and in assay [2] was no less than 32 µg/mL each time.

Turning to `CC[C@@H](C)[C@@H](NC(=O)[C@@H](CC(N)=O)NC(=O)[C@H](CO)NC(=O)[C@@H](NC(=O)[C@@H](Cc1ccccc1)NC)[C@@H](C)CC)C(=O)N[C@H](C(=O)N[C@@H](CO)C(=O)N[C@H]1C(=O)N[C@@H](C)C(=O)N[C@@H](CCCN)C(=O)N[C@@H]([C@@H](C)CC)C(=O)O[C@H]1C)[C@@H](C)CC`, the MIC in assay [1] and in assay [2] was 4 µg/mL (≈ 3.37 µM) in each case.

As for `CC[C@@H](C)[C@@H](NC(=O)[C@@H](CCC(N)=O)NC(=O)[C@H](CO)NC(=O)[C@H](CC(C)C)NC(=O)[C@@H](Cc1ccccc1)NC)C(=O)N[C@H](C(=O)N[C@@H](CO)C(=O)N[C@H]1C(=O)N[C@@H](C)C(=O)N[C@@H](CCCN)C(=O)N[C@@H]([C@@H](C)CC)C(=O)O[C@H]1C)[C@@H](C)CC`, the MIC in assay [1] and in assay [2] was 4 to 8 µg/mL (≈ 3.33 to 6.65 µM) each time.

Broadly, the MIC is the lowest concentration found to suppress growth. A high value points to weaker potency.
